Source: patent US20250282829A1, “ENGINEERED SYNTHETIC PEPTIDES, COMPOSITIONS COMPRISING SAME, AND METHODS OF USE THEREOF FOR TREATING MALIGNANT GLIOMAS” (INSTYTUT BIOLOGII DOSWIADCZALNEJ IM. MARCELEGO NENCKIEGO …, priority 2022, published 2025)

Tests used:
[1] = tested on: U87 MG cells stimulated by BV2 microglial cells; assay: Matrigel invasiveness of U87 MG cells in co-culture with BV2 microglia; assay type: cell-based, human; details: 100 μM, 18 h
Protocol: (§1) FIG. 4. Effect of OPN binding peptides on U87 MG cell invasiveness in the presence of murine BV2 and human SV40 microglial cells. (K−)—negative control—invasiveness of U87 MG cells without microglia; (K+)—positive control, invasiveness of U87 MG dependent on BV2 or SV40 microglia, defined as 100%; DMSO-cells treated with 0.2% DMSO-peptide solvent. Results are presented as means ±standard deviation calculated from three independent biological replicates. Selected peptides block microglia-dependent invasiveness.
(§2) Studies conducted by the present inventors indicate an important role of the OPN protein in the reprogramming of microglia and peripheral macrophages by glioblastoma cells to a protumorigenic phenotype (Ellert-Miklaszewska et al. 2016). […] Investigating the contribution of human OPN to human glioblastoma growth is important in the context of using a peptide that binds human OPN produced by glioma and can block communication between the glioma and the microenvironment. The U87 MG RFP human glioblastoma cell line was established with silenced expression of the OPN protein (shOPN). […] The number of glioma cells actively penetrating the Matrigel Matrix layer (BD Biosciences, extracellular matrix surrogate) in the presence of SV40 human microglial cells was counted. Microglial cells are plated on 24-well plate, after 24 hours, inserts previously covered with Matrigel suspension are placed in the wells, and glioblastoma cells are seeded on its surface. The tested compounds, potentially blocking the invasiveness of cells, are added in a certain concentration to the medium in both the lower and upper layers of the system. After 18 hours of incubation, the Matrigel is removed and the cells on the insert membrane (invading cells) are fixed and stained with a DAPI fluorescent marker. Slides were then photographed using a fluorescence microscope and cells were counted using Image J software (imagej.nih.gov/ij/).
(§3) The effect of selected OPN-binding peptides on the invasiveness of U87 MG cells stimulated by the presence of microglial cells was investigated. […]

recombinant OPN protein = recombinant OPN protein (Homo sapiens, UniProt P10451); assay: ELISA assessing peptide-protein binding; details: N-terminal biotin peptides on OPN-coated plates
Protocol: FIGS. 2A and 2B. OPN-binding peptides. (FIG. 2A) OPN binding peptides were identified using peptide microarrays comprising synthetic peptides. Images of peptide microarrays after incubation with PBS buffer (control), with rhOPN and after immunochemical staining. Control peptides (peptide containing Myc tag—positive control) and peptides with the highest signal were marked on the microarray image. (FIG. 2B) OPN binding peptides identified using ELISA. Peptides with the strongest binding to OPN were selected. Means ±SD are shown, standard deviations were calculated from three independents measurements.
To verify the obtained results, the ELISA method assessing peptide-protein binding was used. In the assay, 96-well ELISA plates were coated with recombinant OPN protein. Uncoated wells were used as controls. Unbound proteins were then washed away and the remaining non-specific binding was blocked with bovine serum protein (BSA). Test peptides with N-terminal biotin attached were added. After incubation, unbound peptides were removed by washing several times. Peptides that bound to OPN were detected using a primary anti-biotin antibody and a secondary antibody linked to horseradish peroxidase. This enzyme catalyses a reaction in which a coloured product is formed from the added substrate. The amount of bound peptides was proportional to the amount of coloured product, which was measured using a spectrophotometer. Of the 52 integrin receptor-derived peptides tested, 9 OPN-binding peptides were identified: I3, I4, I20, I32, I38, I40, I47, I49, I50 (FIG. 2B). The following peptides were selected for further analysis: […], I4, I20, I32, I38, I40, I47, I49, I50.

[2] = tested on: human glioblastoma U87 MG RFP cells implanted in the brain of nude mice; assay: Mouse model of human glioblastoma, intratumoural osmotic pump, MRI tumour size; assay type: in vivo; details: osmotic pump for 3 weeks, MRI T2, control peptide I49S
Protocol: FIGS. 5A and 5B. Effect of peptide 149 on glioblastoma growth in mice. (FIG. 5A) Representative images obtained after vital MRI imaging. The pictures show a section through the center of the tumour, showing the cannula supplying the peptide from the osmotic pump. (FIG. 5B) Tumour volume (n=10) calculated using OsiriX DICOM Viewer from MRI scans.
The anticancer effect of the 149 peptide has been tested. The model of human glioblastoma U87 MG RFP cells implanted in the brain of nude (immunodeficient) mice was used. Peptides were administered via osmotic pumps delivering the peptide directly to the tumour at a constant rate. […] Peptide I49 or control peptide I49S were administered using pumps for 3 weeks, pumps were installed in the mouse brain immediately after implantation of U87 MG RFP cells. Magnetic resonance imaging (MRI T2) was used to assess the size of the tumours.

[3] = tested on: U87 MG cells and SV40 human microglia cells; assay: Matrigel invasiveness of U87 MG cells with SV40 human microglia; assay type: cell-based
Protocol: as §1, §2, §3

alphav integrins = molecular target: T1, alphav integrins (Homo sapiens, UniProt P06756); details: large number of patients, phase III; cited from earlier work
T1 construct: host or cells: patients
T1 sequence (P06756 31-1048): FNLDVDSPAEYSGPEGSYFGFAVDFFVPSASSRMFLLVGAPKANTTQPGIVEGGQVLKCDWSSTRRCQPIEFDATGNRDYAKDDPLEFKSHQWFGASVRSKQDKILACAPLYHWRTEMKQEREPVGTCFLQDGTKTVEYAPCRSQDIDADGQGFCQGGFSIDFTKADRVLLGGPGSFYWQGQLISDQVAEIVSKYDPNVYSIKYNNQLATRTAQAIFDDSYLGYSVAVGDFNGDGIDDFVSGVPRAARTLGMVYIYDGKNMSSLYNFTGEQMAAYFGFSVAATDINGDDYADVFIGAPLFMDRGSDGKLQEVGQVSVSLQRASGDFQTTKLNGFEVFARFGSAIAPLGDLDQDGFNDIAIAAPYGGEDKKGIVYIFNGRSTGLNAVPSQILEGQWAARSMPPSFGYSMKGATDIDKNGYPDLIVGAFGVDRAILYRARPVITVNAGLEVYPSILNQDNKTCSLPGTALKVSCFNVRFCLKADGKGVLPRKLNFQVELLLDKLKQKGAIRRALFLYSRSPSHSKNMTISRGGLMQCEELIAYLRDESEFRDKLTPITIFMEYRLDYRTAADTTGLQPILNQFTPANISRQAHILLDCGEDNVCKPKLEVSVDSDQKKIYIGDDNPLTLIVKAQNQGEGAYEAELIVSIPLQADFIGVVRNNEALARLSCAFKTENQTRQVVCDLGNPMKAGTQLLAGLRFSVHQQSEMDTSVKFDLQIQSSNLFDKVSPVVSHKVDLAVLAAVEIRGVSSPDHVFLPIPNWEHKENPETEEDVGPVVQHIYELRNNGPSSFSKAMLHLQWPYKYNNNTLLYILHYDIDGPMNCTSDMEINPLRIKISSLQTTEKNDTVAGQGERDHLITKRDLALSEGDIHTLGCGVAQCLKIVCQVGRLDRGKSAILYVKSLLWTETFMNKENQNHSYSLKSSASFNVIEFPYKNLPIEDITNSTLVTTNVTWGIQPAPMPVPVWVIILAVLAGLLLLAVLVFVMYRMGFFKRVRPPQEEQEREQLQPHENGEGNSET

Sequence of recombinant OPN protein (P10451 17-314): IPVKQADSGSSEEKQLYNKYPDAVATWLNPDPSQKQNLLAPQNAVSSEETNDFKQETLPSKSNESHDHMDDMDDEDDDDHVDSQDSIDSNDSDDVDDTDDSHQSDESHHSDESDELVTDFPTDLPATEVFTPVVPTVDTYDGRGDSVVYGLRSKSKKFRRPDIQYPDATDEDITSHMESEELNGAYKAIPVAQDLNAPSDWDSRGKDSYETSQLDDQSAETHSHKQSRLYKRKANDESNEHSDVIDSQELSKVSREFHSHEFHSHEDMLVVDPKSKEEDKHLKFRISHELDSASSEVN

Compound	inhibition of microglia-dependent glioma cell invasiveness [1]	peptide binding to OPN in ELISA (recombinant OPN protein)	tumour growth compared to the control group [2]	effect on invasiveness of U87 cells in the presence of human SV40 microglia [3]	clinical effectiveness (alphav integrins)
YDGKNMSSLYNFTG [I49]	inhibited microglia-dependent glioma cell invasiveness	OPN-binding	reduction in tumour growth	inhibited the invasiveness	
SLYNFTGEQMAAYF (listed as Homo sapiens) [I50]	inhibited microglia-dependent glioma cell invasiveness	OPN-binding		inhibited the invasiveness	
SKYDPNVYSIKYNN (listed as Homo sapiens) [I40]	inhibited microglia-dependent glioma cell invasiveness	OPN-binding		inhibited the invasiveness	
CC(C)[C@H]1C(=O)N[C@@H](CCCN=C(N)N)C(=O)NCC(=O)N[C@@H](CC(=O)O)C(=O)N[C@H](Cc2ccccc2)C(=O)N1C [cilengitide, cyclo-(Arg-Gly-Asp-DPhe-NMe-Val)]					did not show the effectiveness
